# Experimental data reported in BindingDB's records for doi:10.1021/jm0301078 (Merck Frosst Centre For Therapeutic Research, 2003).
# Columns and labels:
# Assay in all cases: Enzyme Inhibition Assay
# Cathepsin K = target: T1, Cathepsin K (Homo sapiens, UniProt P43235); settings: pH 5.5; 22 °C
# T1 sequence (P43235 whole entry): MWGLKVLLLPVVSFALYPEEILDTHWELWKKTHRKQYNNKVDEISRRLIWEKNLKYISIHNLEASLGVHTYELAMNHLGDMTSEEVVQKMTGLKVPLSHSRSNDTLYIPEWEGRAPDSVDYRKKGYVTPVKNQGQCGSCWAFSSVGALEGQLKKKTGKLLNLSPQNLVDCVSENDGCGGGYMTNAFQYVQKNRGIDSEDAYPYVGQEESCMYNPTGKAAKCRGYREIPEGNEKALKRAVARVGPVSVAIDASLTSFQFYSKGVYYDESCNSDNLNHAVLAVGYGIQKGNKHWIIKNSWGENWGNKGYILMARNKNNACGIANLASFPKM
# Protocol: (§1) Prior to the addition of substrate, different concentrations of the inhibitor ranging from 100 uM to 0.2 nM were preincubated for 15 min with enzyme to allow the establishment of the enzyme-inhibitor complex. The proteolytic cleavage of N-acyl aminocoumarins by cathepsins was conducted in 96-well plate format and the plate read using a Spectramax (Molecular Devices) plate reader. […] The percent inhibition of the reaction was calculated from a control reaction containing only vehicle. IC50 curves were generated by fitting percent inhibition values to a four parameter logistic model (SOFTMAX PRO, Molecular Devices).
# Procathepsin L = Procathepsin L (Homo sapiens, UniProt P07711)
# Protocol: as §1
# Cathepsin S = Cathepsin S (Homo sapiens, UniProt P25774)
# Protocol: as §1
# Sequence of Procathepsin L (P07711 whole entry): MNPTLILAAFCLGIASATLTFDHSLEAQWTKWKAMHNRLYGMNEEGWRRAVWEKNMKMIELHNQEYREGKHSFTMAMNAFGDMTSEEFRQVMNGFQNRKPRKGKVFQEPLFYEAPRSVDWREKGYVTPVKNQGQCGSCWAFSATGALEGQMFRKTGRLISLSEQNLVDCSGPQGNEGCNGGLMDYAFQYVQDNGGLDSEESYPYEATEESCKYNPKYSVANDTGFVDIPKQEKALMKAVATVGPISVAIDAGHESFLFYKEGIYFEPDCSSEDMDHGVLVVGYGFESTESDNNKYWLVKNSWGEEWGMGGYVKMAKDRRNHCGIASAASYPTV
# Sequence of Cathepsin S (P25774 whole entry): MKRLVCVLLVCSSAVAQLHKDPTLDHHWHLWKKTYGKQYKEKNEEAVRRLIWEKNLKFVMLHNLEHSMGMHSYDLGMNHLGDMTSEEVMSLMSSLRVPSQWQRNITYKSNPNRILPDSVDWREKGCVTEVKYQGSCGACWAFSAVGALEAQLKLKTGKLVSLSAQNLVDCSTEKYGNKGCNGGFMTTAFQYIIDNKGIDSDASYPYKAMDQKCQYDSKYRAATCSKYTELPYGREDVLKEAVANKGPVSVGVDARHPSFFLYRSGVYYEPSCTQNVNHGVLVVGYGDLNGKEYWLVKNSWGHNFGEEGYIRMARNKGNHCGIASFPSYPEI
SMILES,IC50 (Cathepsin K) [nM],IC50 (Procathepsin L) [nM],IC50 (Cathepsin S) [nM]
"CC(C)C[C@@H](C(=O)NCC#N)c1cccc(-c2ccc(-c3nnn[nH]3)cc2)c1 [(2R)-N-(cyanomethyl)-4-methyl-2-{3-[4-(1H-1,2,3,4-tetrazol-5-yl)phenyl]phenyl}pentanamide]",2580,> 10000,> 10000
CC(C)CC(C(=O)NCC#N)c1cccc(-c2ccccn2)c1 (centres undefined) [N-(cyanomethyl)-4-methyl-2-[3-(pyridin-2-yl)phenyl]pentanamide],803,5950,8040
CC(C)CC(C(=O)NCC#N)c1cccc(-c2cccnc2)c1 (centres undefined) [N-(cyanomethyl)-4-methyl-2-[3-(pyridin-3-yl)phenyl]pentanamide],488,5580,> 10000
CC(C)CC(C(=O)NCC#N)c1cccc(-c2ccncc2)c1 (centres undefined) [N-(cyanomethyl)-4-methyl-2-[3-(pyridin-4-yl)phenyl]pentanamide],150,5780,1750
CC(C)CC(C(=O)NCC#N)c1cccc(-c2ccccc2N2CCOCC2)c1 (centres undefined) [N-(cyanomethyl)-4-methyl-2-{3-[2-(morpholin-4-yl)phenyl]phenyl}pentanamide],614,919,3370
CC(C)CC(C(=O)NCC#N)c1cccc(-c2ccccc2N2CCNCC2)c1 (centres undefined) [N-(cyanomethyl)-4-methyl-2-{3-[2-(piperazin-1-yl)phenyl]phenyl}pentanamide],58,338,521
CC(C)CC(C(=O)NCC#N)c1cccc(-c2cccc(N3CCOCC3)c2)c1 (centres undefined) [N-(cyanomethyl)-4-methyl-2-{3-[3-(morpholin-4-yl)phenyl]phenyl}pentanamide],630,> 10000,> 10000
CC(C)CC(C(=O)NCC#N)c1cccc(-c2cccc(N3CCNCC3)c2)c1 (centres undefined) [N-(cyanomethyl)-4-methyl-2-{3-[3-(piperazin-1-yl)phenyl]phenyl}pentanamide],216,> 10000,> 10000
